# Experimental data taken from patent US20250127913A1, “BIFUNCTIONAL FOLATE RECEPTOR BINDING COMPOUNDS” (LYCIA THERAPEUTICS, INC., priority 2021, published 2025).
# Legend:
# [1] = target: T1, folate receptor beta (Homo sapiens (Human), UniProt P14207); assay: Folate receptor binding assay (fluorescence polarization); details: 2.5 nM folate receptor beta, 2 nM FR-Cy probe, 2 hr incubation; read-out: FOLR2-FP
# Method: Folate receptor binding was measured in black 96-well plates using a fluorescence polarization assay. A fluorescent probe consisting of a folate analog linked to Cy5 (FR-Cy) was custom synthesized.
# Test compounds were resuspended in DMSO and 3-fold serial dilutions were made from 300-0.015 μM (100× final concentrations). Binding reactions were conducted in 200 μl final volume in 20 mM Hepes (pH 7.5) 250 mM NaCl 0.0150 Tween-20 1% DMSO with 2.5 nM folate receptor beta (Acro Biosystems) and 2 nM probe. Fluorescence polarization was measured using λex=620 nm, λem=688 nm on an Envision plate reader (Perkin Elmer) after 2 hr incubation time. Dose responses were conducted in duplicate and normalized to the response with DMSO (high) and 1 μM folic acid (low) on each plate. IC50 values were determined by fitting to 4-parameter curves in GraphPad Prism.
# [2] = target: TNFα and streptavidin immobilized FOL2R (Homo sapiens (Human), UniProt P01375+P14207); assay: Ternary complex SPR assay; type: binding; details: 10 nM compound, max response normalized to expected response; for TC 150 nM- tagless TNF Normalized: 150 nM untagged TNF; for TC 300 nM- tagless TNF Normalized: 300 nM untagged TNF; for TC 60 nM taggless TNF normalized: 60 nM untagged TNF
# TNFα and streptavidin immobilized FOL2R, sequence (P14207 17-230): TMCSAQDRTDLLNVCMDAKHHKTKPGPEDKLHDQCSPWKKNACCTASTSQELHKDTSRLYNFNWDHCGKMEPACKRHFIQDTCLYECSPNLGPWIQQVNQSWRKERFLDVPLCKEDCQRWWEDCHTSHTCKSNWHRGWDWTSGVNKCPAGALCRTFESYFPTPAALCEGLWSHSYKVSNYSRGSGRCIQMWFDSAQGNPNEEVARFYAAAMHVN
# TNFα and streptavidin immobilized FOL2R, sequence (P01375 77-233): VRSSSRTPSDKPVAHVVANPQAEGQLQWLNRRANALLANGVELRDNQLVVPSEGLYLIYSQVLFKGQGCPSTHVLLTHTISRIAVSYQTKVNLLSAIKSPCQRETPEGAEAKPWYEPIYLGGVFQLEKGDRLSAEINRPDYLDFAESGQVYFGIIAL
# Method: Folate receptor-TNFα ternary complex SPR assays were conducted on a Biacore 8K instrument (Cytiva) using biotinylated folate receptor beta (Acro Biosystems). Folate receptor was immobilized at -1800 RU on a streptavidin chip (Cytiva) in 10 mM HEPES pH 7.5, 150 mM NaCl, 0.05% Tween 20. Untagged TNF was preincubated with 10 nM compound for 6 hr in 10 mM HEPES pH 7.5, 150 mM NaCl, 0.05 Tween 20, 2% DMSO at 25° C. Samples were then injected over the folate receptor surface at 30 μl/min with an association time of 110 s and a dissociation time of 600 s. Surfaces were regenerated with 4 M MgCl2 at 30 μl/mm for 30 s. The maximum measured response was normalized by comparison to the maximum expected response for each compound.
# [3] = target: TNFα (Homo sapiens (Human), UniProt P01375); assay: TNFα binding assay (time-resolved FRET, biotinylated TNFα); details: 1 nM biotinylated TNFα, 80 nM probe, 16 hr incubation; read-out: TNF-HTRF-biotin
# TNFα, sequence (P01375 77-233): as above
# Method: TNFα binding was measured in black 96-well plates using a time-resolved FRET assay using a previously described fluorescence acceptor TNFα probe (Xiao et al J. Med. Chem. 2020). Biotinylated TNFα was purchased from Acro Biosystems. Binding reactions were conducted in 20 mM Hepes (pH 7.5) 10 mM MgCl2 0.015% Tween-20 0.05 mg/ml BSA 2% DMSO with 1 nM TNFα 0.5 nM Streptavidin-Tb and 80 nM probe. Test compounds were resuspended in DMSO and 3-fold serial dilutions were made at 100× final concentrations. Fluorescence was measured using λex=340 nm, λem=490, 520 nm on an SpectraMax M5e plate reader (Molecular Devices) after 16 hr incubation time. Dose responses were conducted in duplicate and normalized to the response with DMSO (high) and 100 nM (R)-3-(1-((3-chloro-7-fluoro-6-(2-(2-hydroxypropan-2-yl)pyrimidin-5-yl)-2-methyl-1,5-naphthyridin-4-yl)amino)ethyl)-4-fluorobenzonitrile (low) on each plate. IC50 values were determined by fitting to 4-parameter curves in GraphPad Prism.
# [4] = target: T1, folate receptor beta; assay: Folate receptor SPR assay (biotinylated folate receptor beta on streptavidin chip); type: binding; details: for Rmax: biotinylated folate receptor beta on streptavidin chip; for kd / Kd / kon: multi-cycle kinetics, 25° C., 1:1 model; for Kd: read-out: FOLR2Biotin - SPR Kd; for kon: pH 7.5, read-out: ka
# Method: Folate receptor SPR binding assays were conducted on a Biacore 8K instrument (Cytiva) using biotinylated folate receptor beta (Acro Biosystems). Briefly, folate receptor was immobilized at -550 RU on a streptavidin chip (Cytiva) in 10 mM HEPES pH 7.5, 150 mM NaCl, 0.05% Tween 20. Multi-cycle kinetic studies were conducted with 8 compound concentrations using 2-fold dilutions in 10 mM HEPES pH 7.5, 150 mM NaCl, 0.05% Tween 20, 2% DMSO at 25° C. A flow rate or 75 μl/mmn with an association time of 120 s and a dissociation time of 600 s were used. Surfaces were regenerated with 4 M MgCl2 at 30 μl/min for 30 s. Data were fit to a 1:1 model to determine the reported binding parameters.
# T1 sequence (P14207 17-255): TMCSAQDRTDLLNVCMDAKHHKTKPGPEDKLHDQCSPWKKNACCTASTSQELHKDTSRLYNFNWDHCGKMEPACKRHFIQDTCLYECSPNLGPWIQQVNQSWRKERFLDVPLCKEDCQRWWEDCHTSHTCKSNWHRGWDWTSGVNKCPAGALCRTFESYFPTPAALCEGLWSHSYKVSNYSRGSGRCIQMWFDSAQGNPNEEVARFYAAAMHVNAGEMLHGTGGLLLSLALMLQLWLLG
SMILES,IC50 [1],TC 150 nM- tagless TNF Normalized [2],TC 300 nM- tagless TNF Normalized [2],IC50 [3],Rmax [4],kd [4],Kd [4],kon [4],TC 60 nM taggless TNF normalized [2]
"Cc1nc2cc(F)c(-c3cnc(N4CCN(C(=O)COCCOCCOCCOCCOCCOCCn5cc(CC[C@H](NC(=O)c6ccc(N(C)Cc7cnc8nc(N)[nH]c(=O)c8n7)cc6)C(=O)O)nn5)CC4)nc3)nc2c(N[C@H](C)c2cc(C#N)ccc2F)c1Cl [Compound I-86, (S)-2-(4-(((2-amino-4-oxo-3,4-dihydropteridin-6-yl)methyl)(methyl)amino)benzamido)-4-(1-(20-(4-(5-(7-chloro-8-(((R)-1-(5-cyano-2-fluorophenyl)ethyl)amino)-3-fluoro-6-methyl-1,5-naphthyridin-2-yl)pyrimidin-2-yl)piperazin-1-yl)-20-oxo-3,6,9,12,15,18-hexaoxaicosyl)-1H-1,2,3-triazol-4-yl)butanoic acid]",7.7 nM,20.1%,22.8%,17 nM,18.1 RU,0.000344 s⁻¹,0.023 nM,1.53e+07 M⁻¹ s⁻¹,–
"Cc1nc2cc(F)c(-c3cnc(N4CCN(C(=O)COCCOCCOCCOCCOCCOCCn5cc(CC[C@H](NC(=O)c6ccc(N(C)Cc7ccc8nc(N)[nH]c(=O)c8c7)cc6)C(=O)O)nn5)CC4)nc3)nc2c(N[C@H](C)c2cc(C#N)ccc2F)c1Cl [Compound I-85, (S)-2-(4-(((2-amino-4-oxo-3,4-dihydroquinazolin-6-yl)methyl)(methyl)amino)benzamido)-4-(1-(20-(4-(5-(7-chloro-8-(((R)-1-(5-cyano-2-fluorophenyl)ethyl)amino)-3-fluoro-6-methyl-1,5-naphthyridin-2-yl)pyrimidin-2-yl)piperazin-1-yl)-20-oxo-3,6,9,12,15,18-hexaoxaicosyl)-1H-1,2,3-triazol-4-yl)butanoic acid]",12 nM,–,15.1%,13 nM,11.9 RU,0.00112 s⁻¹,0.088 nM,1.27e+07 M⁻¹ s⁻¹,9.7%
"Cc1nc2cc(F)c(-c3cnc(N4CCN(C(=O)COCCOCCN5CCC6(CC5)CCN(C(=O)CC[C@H](NC(=O)c5ccc(NCc7cnc8nc(N)nc(O)c8n7)cc5)C(=O)O)CC6)CC4)nc3)nc2c(N[C@H](C)c2cc(C#N)ccc2F)c1Cl [Compound I-84, (S)-2-(4-(((2-amino-4-hydroxypteridin-6-yl)methyl)amino)benzamido)-5-(9-(2-(2-(2-(4-(5-(7-chloro-8-(((R)-1-(5-cyano-2-fluorophenyl)ethyl)amino)-3-fluoro-6-methyl-1,5-naphthyridin-2-yl)pyrimidin-2-yl)piperazin-1-yl)-2-oxoethoxy)ethoxy)ethyl)-3,9-diazaspiro[5.5]undecan-3-yl)-5-oxopentanoic acid]",6.9 nM,17.4%,17.3%,9 nM,19.7 RU,0.000153 s⁻¹,0.0059 nM,2.59e+07 M⁻¹ s⁻¹,10.8%
"Cc1nc2cc(F)c(-c3cnc(N4CCN(C(=O)COCCn5cc(CCCN6CCC7(CC6)CCN(C(=O)CC[C@H](NC(=O)c6ccc(NCc8cnc9nc(N)nc(O)c9n8)cc6)C(=O)O)CC7)nn5)CC4)nc3)nc2c(N[C@H](C)c2cc(C#N)ccc2F)c1Cl [Compound I-90, (S)-2-(4-(((2-amino-4-hydroxypteridin-6-yl)methyl)amino)benzamido)-5-(9-(3-(1-(2-(2-(4-(5-(7-chloro-8-(((R)-1-(5-cyano-2-fluorophenyl)ethyl)amino)-3-fluoro-6-methyl-1,5-naphthyridin-2-yl)pyrimidin-2-yl)piperazin-1-yl)-2-oxoethoxy)ethyl)-1H-1,2,3-triazol-4-yl)propyl)-3,9-diazaspiro[5.5]undecan-3-yl)-5-oxopentanoic acid]",4.4 nM,20.4%,20.6%,7.6 nM,13.3 RU,0.00013 s⁻¹,0.00496 nM,2.62e+07 M⁻¹ s⁻¹,–
